A word on the pEC50: it is −log10 of the EC50, conventionally taken in molar units.

pEC50: −log10 of the molar value.

Experimental findings from patent US10729688B2, “Hepatitis B antiviral agents” (Enanta Pharmaceuticals, Inc., priority 2018, dated 2020) are described below.

The test system of this assay is HBV. The experiment in a line: HepAD38 antiviral assay: reduction of viral product accumulation. In kind it is cell-based. Conditions: Hepatitis B virus, 120 h; HepAD38 cells, tetracycline removed; harvest five days after compound addition; viral product (virion DNA by qPCR, or HBsAg/HBeAg by ELISA) reduced by 50% relative to no drug controls. How it is done: Methods: HepAD38 cells were maintained as previously reported (Ladner et al, Antimicrob. Agents Chemother. 1997, 4, 1715). Briefly, cells were passaged upon attaining confluency in DMEM/F12 media in the presence of 10% FBS, Penn/Strep, 250 μg/mL G418, and 1 ug/ml tetracycline. Compounds were screened by first washing cells three times with PBS to remove tetracycline, and plating in 96 well plates at 35,000 cells/well. Compounds dissolved in DMSO were then diluted 1:200 into wells containing cells. Five days after compound addition, material was harvested for analysis. For an extended 8 day analysis, cells were plated and treated as described above, but media and compound were refreshed on day 2 and day 5 post initial treatment.
On harvest day, virion DNA was obtained by lysing with Sidestep Lysis and Stabilization Buffer and then quantified via quantitative real time PCR. Commercially available ELISA kits were used to quantitate the viral proteins HBsAg (Alpco) or HbeAg (US Biological) by following the manufacturer's recommended protocol after diluting samples to match the linear range of their respective assays. Irrespective of readout, compound concentrations that reduce viral product accumulation in the cell lysates or supernatants by 50% relative to no drug controls (EC50) are reported; EC50 ranges are as follows: A<0.1 μM; B 0.1-0.2 μM; C>0.2 μM.

As to `O=C(Nc1cc(F)c(F)c(F)c1)N1Cc2c(-c3ccc(F)cc3)cnn2[C@H]2CCC[C@H]21` [Example 1], the pEC50 is < 6.70. Turning to `O=C(Nc1ccc(F)c(F)c1)N1Cc2c(-c3ccc(F)cc3)cnn2[C@H]2CCC[C@H]21` [Example 2], the pEC50 was < 6.70.

On to `O=C(Nc1ccc(F)c(Cl)c1)N1Cc2c(-c3ccc(F)cc3)cnn2[C@H]2CCC[C@H]21` [Example 3], for which the pEC50 is < 6.70. Consider `O=C(Nc1cc(F)c(F)c(F)c1)N1Cc2c(N3CCCS3(=O)=O)cnn2[C@H]2CCC[C@H]21` [Example 4], for which the pEC50 is > 7.00. The value for `O=C(Nc1ccc(F)c(F)c1)N1Cc2c(N3CCCS3(=O)=O)cnn2[C@H]2CCC[C@H]21` [Example 5] was 6.70 to 7.00; that for `O=C(Nc1ccc(F)c(Cl)c1)N1Cc2c(N3CCCS3(=O)=O)cnn2[C@H]2CCC[C@H]21` [Example 6] was > 7.00; that for `O=C(Nc1cc(F)c(F)c(F)c1)N1Cc2c(-c3ccc(F)cc3)cnn2[C@@H]2CCC[C@@H]21` [Example 7] was 6.70 to 7.00. The value for `O=C(Nc1ccc(F)c(F)c1)N1Cc2c(-c3ccc(F)cc3)cnn2[C@@H]2CCC[C@@H]21` [Example 8] was > 7.00.

In the case of `O=C(Nc1ccc(F)c(Cl)c1)N1Cc2c(-c3ccc(F)cc3)cnn2[C@@H]2CCC[C@@H]21` [Example 9], the negative logarithm of the EC50 (pEC50) was < 6.70. The same measure for `O=C(Nc1cc(F)c(F)c(F)c1)N1Cc2c(-c3cscn3)cnn2[C@@H]2CCC[C@@H]21` [Example 13]: > 7.00; for `O=C(Nc1ccc(F)c(F)c1)N1Cc2c(-c3cscn3)cnn2[C@@H]2CCC[C@@H]21` [Example 14]: > 7.00. The value for `O=C(Nc1ccc(F)c(F)c1)N1Cc2c(N3CCCS3(=O)=O)cnn2CC12CC2` [Example 16] was < 6.70; that for `O=C1OCCN1c1cnn2c1CN(C(=O)Nc1cc(F)c(F)c(F)c1)[C@H]1CCC[C@H]12` [Example 36] was < 6.70; that for `O=C1CCCN1c1cnn2c1CN(C(=O)Nc1cc(F)c(F)c(F)c1)[C@H]1CCC[C@H]12` [Example 37] was > 7.00. The same measure for `C[C@H]1COC(=O)N1c1cnn2c1CN(C(=O)Nc1cc(F)c(F)c(F)c1)[C@H]1CCC[C@H]12` [Example 38]: 6.70 to 7.00. As for `O=C(Nc1cc(F)c(F)c(F)c1)N1Cc2c(N3C(=O)O[C@@H]4CCC[C@@H]43)cnn2[C@@H]2CCC[C@@H]21` [Example 39], the pEC50 is > 7.00.

With `O=C1OC(c2ccccc2)CN1c1cnn2c1CN(C(=O)Nc1cc(F)c(F)c(F)c1)[C@H]1CCC[C@H]12` (stereo partly shown) [Example 40], the pEC50 was > 7.00. The value for `COC(=O)Nc1cnn2c1CN(C(=O)Nc1cc(F)c(F)c(F)c1)[C@H]1CCC[C@H]12` [Example 41] was < 6.70; that for `CCS(=O)(=O)Nc1cnn2c1CN(C(=O)Nc1cc(F)c(F)c(F)c1)[C@H]1CCC[C@H]12` [Example 43] was < 6.70; that for `C[C@@H]1CN(c2cnn3c2CN(C(=O)Nc2cc(F)c(F)c(F)c2)[C@H]2CCC[C@H]23)C(=O)O1` [Example 44] was > 7.00. The same measure for `O=C1OC(c2ccccn2)CN1c1cnn2c1CN(C(=O)Nc1cc(F)c(F)c(F)c1)[C@H]1CCC[C@H]12` (stereo partly shown) [Example 45]: > 7.00; for `O=C1OC(C2CCCC2)CN1c1cnn2c1CN(C(=O)Nc1cc(F)c(F)c(F)c1)[C@H]1CCC[C@H]12` (stereo partly shown) [Example 46]: < 6.70.

For `CCC(=O)Oc1cnn2c1CN(C(=O)Nc1cc(F)c(F)c(F)c1)[C@H]1CCC[C@H]12` [Example 47], the pEC50 is < 6.70. As to `O=C(Nc1cc(F)c(F)c(F)c1)N1Cc2c(N3C(=O)C[C@@H]4CCC[C@@H]43)cnn2[C@@H]2CCC[C@@H]21` [Example 48], the negative-log EC50 (pEC50) is > 7.00. The value for `O=C(Nc1cc(F)c(F)c(F)c1)N1Cc2c(N3C(=O)C[C@H]4CCC[C@H]43)cnn2[C@@H]2CCC[C@@H]21` [Example 49] was 6.70 to 7.00.

Take `O=C1CC2(CC2)CN1c1cnn2c1CN(C(=O)Nc1cc(F)c(F)c(F)c1)[C@H]1CCC[C@H]12` [Example 50]: the negative logarithm of the EC50 (pEC50) is > 7.00.

With `O=C(Nc1cc(F)c(F)c(F)c1)N1Cc2c(N3C(=O)OC[C@@H]3c3ccccc3)cnn2[C@@H]2CCC[C@@H]21` [Example 52], the pEC50 was < 6.70.

As to `O=C(Nc1cc(F)c(F)c(F)c1)N1Cc2c(N3C(=O)O[C@H]4CCCC[C@@H]43)cnn2[C@@H]2CCC[C@@H]21` [Example 54], the negative-log EC50 (pEC50) is > 7.00.

With `O=C1OC2(CC2)CN1c1cnn2c1CN(C(=O)Nc1cc(F)c(F)c(F)c1)[C@H]1CCC[C@H]12` [Example 55], the pEC50 was > 7.00.

`O=C(Nc1cc(F)c(F)c(F)c1)N1Cc2c(N3C(=O)OC[C@@H]3C3CCCC3)cnn2[C@@H]2CCC[C@@H]21` [Example 56] had a pEC50 of 6.70 to 7.00. For the compound `O=C1OC2(CCCC2)CN1c1cnn2c1CN(C(=O)Nc1cc(F)c(F)c(F)c1)[C@H]1CCC[C@H]12` [Example 57], the pEC50 was > 7.00. The value for `O=C(Nc1cc(F)c(F)c(F)c1)N1Cc2c(N3C(=O)OC[C@@H]3C3CC3)cnn2[C@@H]2CCC[C@@H]21` [Example 58] was 6.70 to 7.00; that for `O=C(Nc1cc(F)c(F)c(F)c1)N1Cc2c(N3C(=O)OC[C@H]3C3CC3)cnn2[C@@H]2CCC[C@@H]21` [Example 59] was > 7.00; that for `O=C(Nc1cc(F)c(F)c(F)c1)N1Cc2c(N3C(=O)OCC34CC4)cnn2[C@@H]2CCC[C@@H]21` [Example 61] was 6.70 to 7.00. The value for `CCS(=O)(=O)N(C)c1cnn2c1CN(C(=O)Nc1cc(F)c(F)c(F)c1)[C@H]1CCC[C@H]12` [Example 62] was < 6.70. The same measure for `O=C(Nc1cc(F)c(F)c(F)c1)N1Cc2c(N3CCCS3(=O)=O)cnn2[C@@H]2COC[C@@H]21` [Example 63]: < 6.70; for `O=C(Nc1cc(F)c(F)c(F)c1)N1Cc2c(N3C(=O)OC[C@@H]3Cc3ccccc3)cnn2[C@@H]2CCC[C@@H]21` [Example 64]: 6.70 to 7.00. For the compound `CC(C)[C@@H]1N(c2cnn3c2CN(C(=O)Nc2cc(F)c(F)c(F)c2)[C@H]2CCC[C@H]23)C(=O)OC1(C)C` [Example 65], the negative-log EC50 (pEC50) is > 7.00.

In the case of `O=C1OCCCN1c1cnn2c1CN(C(=O)Nc1cc(F)c(F)c(F)c1)[C@H]1CCC[C@H]12` [Example 66], the negative-log EC50 (pEC50) was 6.70 to 7.00. The same measure for `CC1(C)CCN(c2cnn3c2CN(C(=O)Nc2cc(F)c(F)c(F)c2)[C@H]2CCC[C@H]23)C(=O)O1` [Example 67]: > 7.00; for `CC(C)C[C@H]1COC(=O)N1c1cnn2c1CN(C(=O)Nc1cc(F)c(F)c(F)c1)[C@H]1CCC[C@H]12` [Example 68]: 6.70 to 7.00. As to `CC(C)C[C@@H]1N(c2cnn3c2CN(C(=O)Nc2cc(F)c(F)c(F)c2)[C@H]2CCC[C@H]23)C(=O)OC1(C)C` [Example 69], the pEC50 is < 6.70. The same measure for `CC1(C)OC(=O)N(c2cnn3c2CN(C(=O)Nc2cc(F)c(F)c(F)c2)[C@H]2CCC[C@H]23)[C@H]1Cc1ccccc1` [Example 70]: > 7.00. The value for `O=C(Nc1cc(F)c(F)c(F)c1)N1Cc2c(N3CCCS3(=O)=O)cnn2C[C@@H]1c1ccccc1` [Example 71] was > 7.00; that for `O=C(Nc1cc(F)c(F)c(F)c1)N1Cc2c(N3CCCS3(=O)=O)cnn2C[C@@H]1c1ncc[nH]1` [Example 74] was < 6.70; that for `O=C(Nc1cc(F)c(F)c(F)c1)N1Cc2c(N3CCCS3(=O)=O)cnn2C[C@@H]1c1cnco1` [Example 75] was 6.70 to 7.00.
